Laboratory results reported in the NIST ThermoML archive (doi:10.1016/j.jct.2018.01.005).

How the values were obtained:
[1] = excess molar enthalpy (molar enthalpy of mixing); xn = mol fraction of the nth substance listed; details: 100 kPa, Liquid, Flow calorimetry
[2] = 101.33 kPa, Liquid, Vibrating tube method

CC1(C)C(=O)[C@]2(C)CC[C@H]1C2 [(-)-fenchone] + CCCCCO
excess molar enthalpy [kcal/mol], [1]
Details | 283.15 K | 298.15 K | 313.15 K | 328.15 K
x1 = 0.049 | 0.0507 | 0.0559 | 0.0588 | 0.0607
x1 = 0.099 | 0.0966 | 0.108 | 0.115 | 0.118
x1 = 0.199 | 0.179 | 0.197 | 0.207 | 0.212
x1 = 0.3 | 0.231 | 0.259 | 0.276 | 0.283
x1 = 0.397 | 0.264 | 0.299 | 0.321 | 0.331
x1 = 0.498 | 0.276 | 0.314 | 0.337 | 0.349
x1 = 0.596 | 0.269 | 0.306 | 0.329 | 0.341
x1 = 0.702 | 0.241 | 0.274 | 0.294 | 0.304
x1 = 0.803 | 0.192 | 0.216 | 0.229 | 0.236
x1 = 0.898 | 0.109 | 0.125 | 0.135 | 0.139
x1 = 0.949 | 0.0574 | 0.0645 | 0.0693 | 0.0719

CC1(C)C(=O)[C@]2(C)CC[C@H]1C2 [(-)-fenchone] + CCCCO
excess molar enthalpy [kcal/mol], [1]
Details | 283.15 K | 298.15 K | 313.15 K | 328.15 K
x1 = 0.05 | 0.0509 | 0.0569 | 0.0609 | 0.0636
x1 = 0.1 | 0.0966 | 0.109 | 0.117 | 0.122
x1 = 0.203 | 0.175 | 0.194 | 0.208 | 0.217
x1 = 0.3 | 0.222 | 0.25 | 0.269 | 0.282
x1 = 0.396 | 0.255 | 0.289 | 0.313 | 0.328
x1 = 0.499 | 0.267 | 0.305 | 0.331 | 0.348
x1 = 0.603 | 0.261 | 0.299 | 0.325 | 0.341
x1 = 0.692 | 0.237 | 0.27 | 0.292 | 0.305
x1 = 0.805 | 0.184 | 0.208 | 0.222 | 0.23
x1 = 0.898 | 0.105 | 0.122 | 0.132 | 0.137
x1 = 0.95 | 0.0538 | 0.0617 | 0.0664 | 0.0686

CCCCO [butan-1-ol]
[2]
Details | mass density [kg/m3]
283.15 K | 817.11
298.15 K | 805.72
313.15 K | 794.4
328.15 K | 782.11

CCCCCO [pentan-1-ol]
[2]
Details | mass density [kg/m3]
283.15 K | 821.79
298.15 K | 810.9
313.15 K | 799.8
328.15 K | 788.82
